Test results as given in PMC7534598 (iScience, 2020).

Tests used:
furin [1] = target: T1, furin (Homo sapiens, UniProt P09958); assay: enzyme inhibition at a single concentration of […]; type: biochemical; conditions: read-out: % inhibition at 100 μM
furin [2] = target: T1, furin; type: biochemical

T1 sequence (P09958 108-794): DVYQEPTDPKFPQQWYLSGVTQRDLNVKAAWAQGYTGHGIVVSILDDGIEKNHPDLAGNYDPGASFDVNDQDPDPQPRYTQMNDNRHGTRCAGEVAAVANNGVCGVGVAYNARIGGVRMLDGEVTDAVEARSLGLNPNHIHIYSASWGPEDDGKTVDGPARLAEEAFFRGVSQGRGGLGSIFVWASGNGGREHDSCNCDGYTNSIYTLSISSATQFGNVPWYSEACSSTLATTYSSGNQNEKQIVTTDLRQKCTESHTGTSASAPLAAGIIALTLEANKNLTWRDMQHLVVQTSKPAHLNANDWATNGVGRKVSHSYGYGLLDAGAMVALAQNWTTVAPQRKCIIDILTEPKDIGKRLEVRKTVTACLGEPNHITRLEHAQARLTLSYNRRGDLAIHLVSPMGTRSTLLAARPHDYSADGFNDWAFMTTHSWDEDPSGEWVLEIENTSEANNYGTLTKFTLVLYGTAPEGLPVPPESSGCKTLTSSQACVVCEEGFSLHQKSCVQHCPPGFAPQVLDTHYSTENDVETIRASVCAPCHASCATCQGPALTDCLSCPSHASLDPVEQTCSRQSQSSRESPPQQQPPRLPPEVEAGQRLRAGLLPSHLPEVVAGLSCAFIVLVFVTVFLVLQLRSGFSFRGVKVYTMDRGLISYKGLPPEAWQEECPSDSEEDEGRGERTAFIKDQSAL

In the case of `Nc1nc(N)c2nc(CNc3ccc(C(=O)N[C@@H](CCC(=O)O)C(=O)O)cc3)cnc2n1` [aminopterin], the inhibition at 100 µM (furin [1]) is reported as > 70%.

`N=C(N)c1ccc(/N=N/Nc2ccc(C(=N)N)cc2)cc1` [diminazene] was tested, and the IC50 (furin [2]) was 5.42 ± 0.11 µM.

`CN(Cc1cnc2nc(N)nc(N)c2n1)c1ccc(C(=O)N[C@@H](CCC(=O)O)C(=O)O)cc1` [methotrexate] was tested, and the inhibition at 100 µM (furin [1]) was > 70%.

With `COc1cc(C2Oc3cc([C@H]4Oc5cc(O)cc(O)c5C(=O)[C@@H]4O)ccc3OC2CO)ccc1O` (stereo partly shown) [silybin] the inhibition at 100 µM (furin [1]) was > 70%.
